Values quoted from earlier work, collected in US20200138880A1, “BACTERIA-BASED GEL COMPOSITIONS FOR TOPICAL APPLICATIONS AND USES THEREOF” (PROBIOTICAL S.P.A., priority 2016, published 2020).

Conditions: well known; free melatonin not bound to globulins

For `COc1ccc2[nH]cc(CCNC(C)=O)c2c1` [melatonin], the “melatonin concentration in saliva as share of its plasma levels” value is given as 24%-33%.
